Results reported in US20230255953A1, “USE OF ROLUPERIDONE IN PREVENTING RELAPSE IN SCHIZOPHRENIA PATIENTS” (Minerva Neurosciences, Inc., priority 2022, published 2023).

Columns and labels:
[1] = tested on: patients with negative symptoms of schizophrenia; assay: Integrated analysis (pooled ITT): PSP Total score; type: in vivo, human; design: key to PSP Total score, LS mean change from Baseline compared with placebo / PSP Total Score change from Baseline, Median: change in PSP Total score (scale 1-100, higher = better functioning); details: for PSP Total Score change from Baseline, LS mean (SE) / PSP Total Score change from Baseline, Mean (SD) / PSP Total Score change from Baseline, Median / PSP Total Score, Difference (95% CI) in LS mean (vs placebo): DB; for PSP Total Score change from Baseline, LS mean (SE) / PSP Total Score change from Baseline, Mean (SD) / PSP Total Score change from Baseline, Median / PSP Total Score, Difference (95% CI) in LS mean (vs placebo) / PSP Total score, LS mean change from Baseline compared with placebo: pooled ITT; for PSP Domain Disturbing and Aggressive Behavior, Change from Baseline (LS Means [SEM]) / PSP Domain Personal and Social Relationships, Change from Baseline (LS Means [SEM]) / PSP Domain Self-Care, Change from Baseline (LS Means [SEM]) / PSP Domain Socially Useful Activities, Change from Baseline (LS Means [SEM]) / PSP Total Score, Change from Baseline (LS Means [SEM]): ITT; for Patients with high improvement in PSP Total score (magnitude of change ≥10) / Patients with moderate improvement in PSP Total score (magnitude of change 7-9) / Patients with moderate or high improvement in PSP Total score, total: pooled; for Patients with 7-Point Improvement in PSP Total Score at Week 12, percent / Number of Patients with 7-Point improvement in PSP Total Score at Week 12: responder analysis; for Number of Patients with 7-Point improvement in PSP Total Score at Week 12: n/N
From the text: The primary integrated analysis of the efficacy of Roluperidone compared with placebo for the treatment of negative symptoms of schizophrenia is based on the change from Baseline in the PANSS Marder's negative symptoms factor score (in this document referred to as NSFS) to Week 12. Efficacy is also supported by the analysis of change from Baseline in the PSP Total score and the CGI-S to Week 12.
The PSP is a validated clinician-rated scale intended to reflect real-life situations that measures personal and social functioning in 4 domains: (a) socially useful activities, (b) personal and social relationships, (c) self-care, and (d) disturbing and aggressive behaviors. The score is based on the assessment of a patient's performance in the 4 domains. The PSP Total score is a single measurement of functioning ranging from 1 to 100, where a higher score represents better functioning. A score of 91 to 100 indicates excellent functioning in all 4 main areas; the patient is held in high consideration for their good qualities, copes adequately with life problems, and is involved in a wide range of interests and activities. A score of 1 to 10 indicates a lack of autonomy in basic functioning with extreme behaviors but without survival risk (score 6 to 10) or with survival risk (score 1 to 5). […] Review of the relevant scientific literature and the analysis of the psychometric properties of the 4 domains that result in the generation of the PSP Total score were supportive of the appropriateness and cross-cultural applicability of the use of the PSP in drug development for the indication of negative symptoms of schizophrenia The PSP was assessed at the timepoints described in Table 6. The changes from Baseline in the PSP Total score and individual domain scores after 12 weeks of treatment were exploratory efficacy endpoints in Study MIN-101C03, and the Total score was the key secondary efficacy endpoint and the PSP domain scores were exploratory endpoints in Study MIN-101C07.
(§1) The Efficacy data from Study Nos. 1 and 2 were pooled. The majority of patients in the pooled ITT population completed the DB period (502 patients overall, 66.3%), with similar rates in each treatment group (placebo: 69.8%, 32 mg Roluperidone: 65.3%, and 64 mg Roluperidone: 63.8%) (Table 12). The majority (62.7%) of those who completed the DB period entered the OL period. The most common reason for discontinuation during the DB period among patients overall was withdrawal of consent (15.6%), followed by adverse events (7.3%) and lack of efficacy (5.4%) (Table 12). […] Approximately twice as many patients in the Roluperidone groups (32 mg: 8.5%; 64 mg: 9.1%) discontinued due to adverse events compared with patients in the placebo group (4.3%). More patients in the placebo group discontinued due to lack of efficacy (6.7%) than in the Roluperidone groups (32 mg: 4.4%; 64 mg: 5.1%). The low number of patients who discontinued due to lack of efficacy or withdrawal of consent probably reflects a low level of worsening of positive symptoms.
The integrated analysis supporting the efficacy of Roluperidone as a treatment for the negative symptoms of schizophrenia in adults is presented below.

[2] = tested on: patients with negative symptoms of schizophrenia; assay: Integrated analysis (pooled ITT): patient disposition, reasons for withdrawal; type: in vivo, human; details: for Withdrawn from double-blind period: Adverse event, % / Withdrawn from double-blind period: Death, % / Withdrawn from double-blind period: Lack of efficacy, %: DB
Description: as §1
A similar proportion of patients in each OL treatment group entered the OL period from the DB period (range: 61.3% to 65.6%) (Table 13). The most common reason for discontinuation in the OL period among patients was withdrawal of consent (93 patients, 12.3%), followed by adverse event (45 patients, 5.9%) and lack of efficacy (16 patients, 2.1%).

sigma2 = sigma2 (Homo sapiens, UniProt Q5BJF2); details: background statement; cited from earlier work
Chain of sigma2 (Q5BJF2 whole entry): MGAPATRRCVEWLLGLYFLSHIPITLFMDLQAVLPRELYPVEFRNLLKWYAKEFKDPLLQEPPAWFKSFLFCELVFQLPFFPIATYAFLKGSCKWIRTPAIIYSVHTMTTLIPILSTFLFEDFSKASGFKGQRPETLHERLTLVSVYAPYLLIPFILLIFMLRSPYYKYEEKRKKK

histaminergic receptors = details: background statement; cited from earlier work
[3] = Placebo in DB to 32 mg in OL (N = 128)
[4] = Placebo in DB to 64 mg in OL (N = 127)
[5] = Placebo in DB to Roluperidone in OL, Total (N = 255)
[6] = Roluperidone at Any Time 32 mg (N = 376)
[7] = Roluperidone at Any Time 64 mg (N = 381)

For “1H-Isoindol-1-one,2-[ [1-[2-(4-fluorophenyl)-2-oxoethyl]-4-piperidinyl]methyl]-2,3-dihydro-, hydrochloride, hydrate (1:1:2) [Roluperidone]”, the “PSP Total Score change from Baseline, LS mean (SE)” value (shortened to “PSP Total Score change … (SE)”) ([1]; 32 mg, Week 4) was 1.6 (0.52), the “PSP Total Score change from Baseline, Mean (SD)” value (shortened to “PSP Total Score change … (SD)”) ([1]; 32 mg, Week 4) was 1.5 (7.87) and the “PSP Total Score change from Baseline, Median” value ([1]; 32 mg, Week 4) was 0.0. For the same substance, the “PSP Total Score, Difference (95% CI) in LS mean (vs placebo)” value (“PSP Total Score, Difference (95% CI)” for short) ([1]; 32 mg, Week 4) was 0.7, the “PSP Total Score change … (SE)” value ([1]; 32 mg, Week 8) was 2.9 (0.62) and the “PSP Total Score change … (SD)” value ([1]; 32 mg, Week 8) was 3.6 (7.04). The “PSP Total Score change from Baseline, Median” value ([1]; 32 mg, Week 8) was 2.0, the “PSP Total Score, Difference (95% CI)” value ([1]; 32 mg, Week 8) was 0.6 and the “PSP Total Score change … (SE)” value ([1]; 32 mg, Week 12) was 3.3 (0.71). For the same substance, the “PSP Total Score change … (SD)” value ([1]; 32 mg, Week 12) was 3.5 (10.03), the “PSP Total Score change from Baseline, Median” value ([1]; 32 mg, Week 12) was 2.0 and the “PSP Total Score, Difference (95% CI)” value ([1]; 32 mg, Week 12) was 0.5. The “PSP Domain Disturbing and Aggressive Behavior, Change from Baseline (LS Means [SEM])” value ([1]; 32 mg, Week 12) was −0.1 (0.04), the “PSP Domain Personal and Social Relationships, Change from Baseline (LS Means [SEM])” value ([1]; 32 mg, Week 12) was −0.3 (0.05) and the “PSP Domain Self-Care, Change from Baseline (LS Means [SEM])” value ([1]; 32 mg, Week 12) was −0.3 (0.05). The “PSP Domain Socially Useful Activities, Change from Baseline (LS Means [SEM])” value ([1]; 32 mg, Week 12) was −0.3 (0.05), the “PSP Total Score, Change from Baseline (LS Means [SEM])” value ([1]; 32 mg, Week 12) was 3.3 (0.71) and the “PSP Total score, LS mean change from Baseline compared with placebo” value ([1]; 32 mg, Week 12) was 0.5. The “Patients with high improvement in PSP Total score (magnitude of change ≥10)” value ([1]; 32 mg) was 26%, the “Patients with moderate improvement in PSP Total score (magnitude of change 7-9)” value ([1]; 32 mg) was 7% and the “Patients with moderate or high improvement in PSP Total score, total” value ([1]; 32 mg) was 33%. The “Patients with 7-Point Improvement in PSP Total Score at Week 12, percent” value ([1]; 32 mg) was 33%, the “Number of Patients with 7-Point improvement in PSP Total Score at Week 12” value ([1]; 32 mg) was 54/166 and the “PSP Total Score change … (SE)” value ([1]; 64 mg, Week 4) was 3.1 (0.52). The “PSP Total Score change … (SD)” value ([1]; 64 mg, Week 4) was 3.1 (8.33), the “PSP Total Score change from Baseline, Median” value ([1]; 64 mg, Week 4) was 1.0 and the “PSP Total Score, Difference (95% CI)” value ([1]; 64 mg, Week 4) was 2.1. For the same substance, the “PSP Total Score change … (SE)” value ([1]; 64 mg, Week 8) was 4.9 (0.61), the “PSP Total Score change … (SD)” value ([1]; 64 mg, Week 8) was 4.8 (6.61) and the “PSP Total Score change from Baseline, Median” value ([1]; 64 mg, Week 8) was 3.0. For the same substance, the “PSP Total Score, Difference (95% CI)” value ([1]; 64 mg, Week 8) was 2.6, the “PSP Total Score change … (SE)” value ([1]; 64 mg, Week 12) was 6.4 (0.69) and the “PSP Total Score change … (SD)” value ([1]; 64 mg, Week 12) was 6.4 (10.32). For the same substance, the “PSP Total Score change from Baseline, Median” value ([1]; 64 mg, Week 12) was 4.5, the “PSP Total Score, Difference (95% CI)” value ([1]; 64 mg, Week 12) was 3.6 and the “PSP Domain Disturbing and Aggressive Behavior, Change from Baseline (LS Means [SEM])” value ([1]; 64 mg, Week 12) was −0.0 (0.04). The “PSP Domain Personal and Social Relationships, Change from Baseline (LS Means [SEM])” value ([1]; 64 mg, Week 12) was −0.4 (0.05), the “PSP Domain Self-Care, Change from Baseline (LS Means [SEM])” value ([1]; 64 mg, Week 12) was −0.3 (0.05) and the “PSP Domain Socially Useful Activities, Change from Baseline (LS Means [SEM])” value ([1]; 64 mg, Week 12) was −0.4 (0.05). The “PSP Total Score, Change from Baseline (LS Means [SEM])” value ([1]; 64 mg, Week 12) was 6.4 (0.69), the “PSP Total score, LS mean change from Baseline compared with placebo” value ([1]; 64 mg, Week 12) was 3.6 and the “Patients with high improvement in PSP Total score (magnitude of change ≥10)” value ([1]; 64 mg) was 36%. For the same substance, the “Patients with moderate improvement in PSP Total score (magnitude of change 7-9)” value ([1]; 64 mg) was 7%, the “Patients with moderate or high improvement in PSP Total score, total” value ([1]; 64 mg) was 43% and the “Patients with 7-Point Improvement in PSP Total Score at Week 12, percent” value ([1]; 64 mg) was 43%. The “Number of Patients with 7-Point improvement in PSP Total Score at Week 12” value ([1]; 64 mg) was 76/176, the “PSP Total Score change … (SD)” value ([1]; Roluperidone Total, Week 4) was 2.3 (8.14) and the “PSP Total Score change from Baseline, Median” value ([1]; Roluperidone Total, Week 4) was 0.0. The “PSP Total Score change … (SD)” value ([1]; Roluperidone Total, Week 8) was 4.2 (6.84), the “PSP Total Score change from Baseline, Median” value ([1]; Roluperidone Total, Week 8) was 3.0 and the “PSP Total Score change … (SD)” value ([1]; Roluperidone Total, Week 12) was 5.0 (10.27). The “PSP Total Score change from Baseline, Median” value ([1]; Roluperidone Total, Week 12) was 3.0, the “Withdrawn from double-blind period: Adverse event, %” value ([2]; 32 mg (N = 248)) was 8.5% and the “Withdrawn from double-blind period: Death, %” value ([2]; 32 mg (N = 248)) was 0.4%. For the same substance, the “Withdrawn from double-blind period: Lack of efficacy, %” value ([2]; 32 mg (N = 248)) was 4.4%, the “Withdrawn from double-blind period: Adverse event, %” value ([2]; 64 mg (N = 254)) was 9.1% and the “Withdrawn from double-blind period: Lack of efficacy, %” value ([2]; 64 mg (N = 254)) was 5.1%. For the same substance, the “Withdrawn from OL period: Adverse event, %” value [2, 3] was “(6.3) %”, the “Withdrawn from OL period: Lack of efficacy, %” value [2, 3] was “(3.1) %” and the “Withdrawn from OL period: Adverse event, %” value [2, 4] was “(3.9) %”. The “Withdrawn from OL period: Lack of efficacy, %” value [2, 4] was “(1.6) %”, the “Withdrawn from OL period: Adverse event, %” value [2, 5] was “(5.1) %” and the “Withdrawn from OL period: Lack of efficacy, %” value [2, 5] was “(2.4) %”. For the same substance, the “Withdrawn from double-blind period: Adverse event, %” value ([2]; Roluperidone Total (N = 502)) was 8.8%, the “Withdrawn from double-blind period: Death, %” value ([2]; Roluperidone Total (N = 502)) was 0.2% and the “Withdrawn from double-blind period: Lack of efficacy, %” value ([2]; Roluperidone Total (N = 502)) was 4.8%. For the same substance, the “Withdrawn from OL period: Adverse event, %” value [2, 6] was “(5.6) %”, the “Withdrawn from OL period: Lack of efficacy, %” value [2, 6] was “(2.1) %” and the “Withdrawn from OL period: Adverse event, %” value [2, 7] was “(6.3) %”. The “Withdrawn from OL period: Lack of efficacy, %” value [2, 7] was “(2.1) %”, the Antagonistic activity (sigma2) was “antagonistic activities” and the Affinity (histaminergic receptors) was “very low or no affinity”.
